We go through four molecules from paper PMC11638965, “Leveraging Dual-Ligase Recruitment to Enhance Protein Degradation via a Heterotrivalent Proteolysis Targeting Chimera” (Journal of the American Chemical Society, 2024).

For assay [1], the system named is HiBiT-BRD4 and HaloTag-VHL. In words: NanoBRET live cell ternary complex formation assay. It counts as cell-based, human. Particulars: HiBiT-BRD4 HEK293 cells, MG132 pretreatment, 0.01, 0.1 and 1 μM, 3.5 h. The procedure: (§1) NanoBRET ternary complex assays were performed using Promega kits for CRBN (ND2720) and VHL (ND2700) according to manufacturer’s instructions. One day prior to the assay, HEK293 HiBiT-BRD4 (LgBiT Stable) were plated at a density of 800,000 cells/well in a 6-well plate. Cells were allowed to adhere for at least 4 h. Transfection mixtures containing 100 μL Opti-MEM, 6 μL FuGENE HD, and either 2 μg HaloTag-CRBN or HaloTag-VHL were prepared and allowed to incubate for 10 min at room temperature prior to addition to the cells. The next day, cells were trypsinized and resuspended in phenol red-free Opti-MEM Reduced Serum Medium supplemented with 4% FBS. Cells were counted and density was adjusted to 200,000 cells/mL. Cells were divided into two pools: one which received HaloTag NanoBRET 618 Ligand at a final concentration of 100 nM and one which received the same volume of DMSO. Cells were plated on white tissue-culture 96-well plates (100 μL/well) and allowed to adhere overnight. The next day, media was aspirated from the cells and replaced with phenol red-free Opti-MEM Reduced Serum medium supplemented with 4% FBS and a 1:100 dilution of Nano-Glo Vivazine substrate (Promega) and 10 μM MG132. Luminescence was allowed to equilibrate at 37 °C, 5% CO2 for 1 h. During this time, a dilution series of each PROTAC at 10x the desired final concentration was prepared (keeping DMSO constant in all concentrations). 10 μL of this dilution series was added to the plate after luminescence equilibration, and kinetic measurements of donor emission at 460 nm and acceptor emission at 618 nm were collected every 3 min using a ClarioStar plate reader. milliBRET ratios were calculated as (Emission at 618 nm/Emission at 460 nm) × 1000. Donor-contributed background or bleedthrough was corrected for by subtracting milliBRET ratios from no ligand control cells from treated cells. Corrected milliBRET ratios were plotted as a function of time in GraphPad Prism.

The subject of assay [2] is HiBiT-BRD4 and HaloTag-CRBN. In words: NanoBRET live cell ternary complex formation assay. The assay is classed as cell-based, human. Particulars: for ternary complex formation between BRD4 and CRBN (in words): HiBiT-BRD4 HEK293 cells, HaloTag-CRBN, MG132 pretreatment, 0.01, 0.1 and 1 μM, 3.5 h; for time to plateau of ternary complex signal with CRBN: NanoBRET, HiBiT-BRD4 HEK293 cells with HaloTag-CRBN. The method, then:
as §1

Assay [3] deals with RKO CRBN KO cells. Description: Cell viability assay (CellTiter-Glo). The assay is classed as cell-based, human. Particulars: 316 pM to 10 μM, 3 days, n = 3 (Figures 5 and 8C, Table S5).
The test system of assay [4] is HEK293 cells. Description: TMT mass spectrometry proteomics. The note with it: 250 nM, 4 h; for proteins significantly depleted/downregulated, proteome-wide: 7276 proteins detected, relative to DMSO. The assay is classed as cell-based, Human. The method, then: S-Trap micro spin column digestion was performed according to the manufacturer’s protocol. Briefly, HEK293 cells were treated with DMSO, 250 nM neg-cis-AB3067 (95) or 250 nM AB3067 (27) for 4 h; cells were harvested and washed with PBS and spun. Cell pellets were solubilized in 5% SDS, 50 mM triethylammonium bicarbonate, reduced with 100 mM DTT solution and alkylated with iodoacetamide to a final concentration of 40 mM. Aqueous phosphoric acid was added to a final concentration of 1.2%. Protein particulate was formed by adding S-Trap binding buffer [90% aqueous methanol, 100 mM TEAB (pH 7.1)]. The mixture was placed on S-Trap micro 1.7 mL columns and centrifuged at 4000 × g for 10 s. Columns were washed with 150 μL of S-Trap binding buffer five times and centrifuged at 4000 × g for 10 s. Samples were digested with 2 μg of trypsin (Promega) at 37 °C for four h. Peptides were eluted with 40 μL of 50 mM TEAB followed by 40 μL of 0.2% aqueous formic acid, and peptides were finally vacuum-dried. TMT15plex labeling of DMSO, 250 nM neg-cis-AB3067 (95) or 250 nM AB3067 (27) conditions were performed, with five biological replicates for each condition and peptide cleanup was performed according to the manufacturer’s protocol. After checking the labeling efficiency, samples were combined, desalted, and dried under vacuum. TMT samples were fractionated using offline high-pH reverse-phase chromatography. Peptides were separated, concatenated to 22 fractions, dried, and peptides redissolved in 5% formic acid and analyzed by LC–MS.
The raw mass spectrometric data were loaded into MaxQuant. Enzyme specificity was set to that of trypsin/P, allowing for cleavage of N-terminal to proline residues and between aspartic acid and proline residues. Other parameters used were as follows: (i) variable modifications—methionine oxidation, protein N-acetylation; (ii) fixed modifications, cysteine carbamidomethylation; (iii) database: Uniprot; -Human (iv) labels: 15-plex TMT (v) MS/MS tolerance: FTMS- 20 ppm, (vi) minimum peptide length, 7; (vii) maximum missed cleavages, 2; and (viii) and (ix) PSM and Protein false discovery rate, 1%. Reporter ion intensities (corrected) results from MaxQuant were imported into excel for bioinformatic analysis. The normalized corrected reporter ion intensities for each label were used to calculate ratios, and all “Contaminant,″ “Reverse”, and “Only identified by site” proteins were removed from the data. Proteins above or below twofold change [log2(2) = 1], and a nominal p-value less than 0.03 [−log10(0.03) = 1.5] were considered as differentially expressed proteins. The final volcano plot was produced in GraphPad prism 10 version [10.2.2].

Entries after “also recorded” stand apart in the source; their conditions may differ.

Consider `Cc1ncsc1-c1ccc(CNC(=O)[C@@H]2C[C@@H](O)CN2C(=O)[C@@H](NC(=O)COCC(C)(COCCOCCOCCNc2cc3c(cc2F)C(=O)N(C2CCC(=O)NC2=O)C3=O)COCCOCCOCCOC(=O)C[C@@H]2N=C(c3ccc(Cl)cc3)c3c(sc(C)c3C)-n3c(C)nnc32)C(C)(C)C)cc1` (mixture of isomers) [AB3063 (26), (17S)-11-((2-(2-(2-((2-(2,6-dioxopiperidin-3-yl)-6-fluoro-1,3-dioxoisoindolin-5-yl)amino)ethoxy)ethoxy)ethoxy)methyl)-17-((2S,4R)-4-hydroxy-2-((4-(4-methylthiazol-5-yl)benzyl)carbamoyl)pyrrolidine-1-carbonyl)-11,18,18-trimethyl-15-oxo-3,6,9,13-tetraoxa-16-azanonadecyl 2-((S)-4-(4-chlorophenyl)-2,3,9-trimethyl-6H-thieno[3,2-f][1,2,4]triazolo[4,3-a][1,4]diazepin-6-yl)acetate], for which, in assay [1], the “ternary complex formation between BRD4 and VHL (in words)” value was “can engage and form ternary complexes”. Moreover, in assay [2], the “ternary complex formation between BRD4 and CRBN (in words)” value is “can engage and form ternary complexes”; the “time to plateau of ternary complex signal with CRBN” value was 30 min.
With `Cc1ncsc1-c1ccc([C@H](C)NC(=O)[C@@H]2C[C@@H](O)CN2C(=O)[C@@H](NC(=O)COCC(C)(COCCOCCOCCNc2cc3c(cc2F)C(=O)N(C2CCC(=O)NC2=O)C3=O)COCCOCCOCCOC(=O)C[C@@H]2N=C(c3ccc(Cl)cc3)c3c(sc(C)c3C)-n3c(C)nnc32)C(C)(C)C)cc1` (mixture of isomers) [AB3067 (27), (17S)-11-((2-(2-(2-((2-(2,6-dioxopiperidin-3-yl)-6-fluoro-1,3-dioxoisoindolin-5-yl)amino)ethoxy)ethoxy)ethoxy)methyl)-17-((2S,4R)-4-hydroxy-2-(((S)-1-(4-(4-methylthiazol-5-yl)phenyl)ethyl)carbamoyl)pyrrolidine-1-carbonyl)-11,18,18-trimethyl-15-oxo-3,6,9,13-tetraoxa-16-azanonadecyl 2-((S)-4-(4-chlorophenyl)-2,3,9-trimethyl-6H-thieno[3,2-f][1,2,4]triazolo[4,3-a][1,4]diazepin-6-yl)acetate], in assay [1] (listed as 27), the “ternary complex formation between BRD4 and VHL (in words)” value is “can engage and form ternary complexes; also recorded: more robust dose–response with both VHL and CRBN than 26”. In addition, in assay [2] (listed as 27), the “ternary complex formation between BRD4 and CRBN (in words)” value was “can engage and form ternary complexes; also recorded: more robust dose–response with both VHL and CRBN than 26”. The “time to plateau of ternary complex signal with CRBN” value in assay [2] worked out at 30 min. In assay [3] (listed as 27), this molecule displayed a concentration giving a half-maximal response (EC50) of 133 nM. Also, in assay [3] (Homo sapiens, 72 h), the midpoint of the response, the EC50, lay at 180 nM. Moreover, in assay [4], the CRBN abundance result was “not significantly depleted”; the EID2 abundance entry is listed as “significantly downregulated”; the “proteins significantly depleted/downregulated, proteome-wide” value was “all three BET proteins, BRD2, BRD3 and BRD4, were significantly depleted”.
Take `Cc1ncsc1-c1ccc(CNC(=O)[C@@H]2C[C@@H](O)CN2C(=O)[C@@H](NC(=O)COCC(COCCOCCOCCNc2cc3c(cc2F)C(=O)N(C2CCC(=O)NC2=O)C3=O)(COCCOCCOCCOC(=O)C[C@@H]2N=C(c3ccc(Cl)cc3)c3c(sc(C)c3C)-n3c(C)nnc32)COCCOCCOCCOC(=O)C[C@@H]2N=C(c3ccc(Cl)cc3)c3c(sc(C)c3C)-n3c(C)nnc32)C(C)(C)C)cc1` (mixture of isomers) [AB3124 (86)]: the half-maximal effective concentration (EC50) was determined as 62 nM in assay [3] (listed as 86) and 34 nM in assay [3] (Homo sapiens, 72 h).
Regarding `Cc1ncsc1-c1ccc([C@H](C)NC(=O)[C@@H]2C[C@H](O)CN2C(=O)[C@@H](NC(=O)COCC(C)(COCCOCCOCCNc2cc3c(cc2F)C(=O)N(C2CCC(=O)N(C)C2=O)C3=O)COCCOCCOCCOC(=O)C[C@@H]2N=C(c3ccc(Cl)cc3)c3c(sc(C)c3C)-n3c(C)nnc32)C(C)(C)C)cc1` (mixture of isomers) [neg-cis-AB3067 (95), (17S)-11-((2-(2-(2-((6-fluoro-2-(1-methyl-2,6-dioxopiperidin-3-yl)-1,3-dioxoisoindolin-5-yl)amino)ethoxy)ethoxy)ethoxy)methyl)-17-((2S,4S)-4-hydroxy-2-(((S)-1-(4-(4-methylthiazol-5-yl)phenyl)ethyl)carbamoyl)pyrrolidine-1-carbonyl)-11,18,18-trimethyl-15-oxo-3,6,9,13-tetraoxa-16-azanonadecyl 2-((S)-4-(4-chlorophenyl)-2,3,9-trimethyl-6H-thieno[3,2-f][1,2,4]triazolo[4,3-a][1,4]diazepin-6-yl)acetate], the “proteins significantly depleted/downregulated, proteome-wide” value in assay [4] is on record as “no protein was significantly downregulated”.
